Source: patent US20240058292A1, “PHARMACEUTICAL COMPOSITION FOR TREATING CANCER, AND PREPARATION METHOD AND USE THEREOF” (priority 2020, published 2024)

Legend:
[1] = system: Human brain astroblastoma cell line U-87MG; assay: Tumor-suppressing effect on subcutaneously transplanted U-87MG tumors in nude mice (tumor weight, IRTW); type: in vivo, BALB/C-nu/nu mice; conditions: intraperitoneal injection; for Tumor-suppressing rate (%): IRTW vs model group; for Tumor weight: U-87MG tumor, end of experiment, mean±SD
Description: 4. Laboratory animals • Animal species: BALB/C-nu/nu mice • Animal grade: SPF grade • Gender and quantity:42 females • Animal age at the start of an experiment: 6 weeks old • Animal body weight at the start of an experiment: 18±2 g • Animal source: Vital River Laboratory Animal Technology Co., Ltd.
Cell source and cultivation conditions: Human brain astroblastoma cell line U-87MG: which came from the Cell Resource Center of the Shanghai Institutes for Biological Sciences (SIBS); medium: MEM medium including 1% penicillin-streptomycin sulfate mixed solution (100 ×) and 10% fetal bovine serum (FBS) (from Australia); cultivation conditions: 5% CO2 and 37° C.; and the cell line was frozen by Marine Biomedical Research Institute of Qingdao.
The cell line U-87MG stored in liquid nitrogen was recovered, inoculated in a corresponding medium including 10% FBS, 100 U/mL penicillin, and 100 […] streptomycin, and cultivated in the cell culture incubator at 37° C. and 5% CO2. The cells were passaged every two days.
After the cells were passaged four times, resulting cells were collected through digestion with 0.05% trypsin-EDTA, counted under a microscope, and resuspended with a medium to obtain a cell suspension with 5×10^7 cells/mL; a mouse was routinely disinfected, and 0.2 mL of the cell suspension was subcutaneously inoculated in an axillary region of a right forelimb of the mouse; and a resulting tumor tissue was aseptically taken out, weighed, diluted with a sodium chloride injection according to a mass-to-volume ratio of 1:4, and then ground, then a mouse was routinely disinfected, and 0.2 mL of a resulting suspension was subcutaneously inoculated in an axillary region of a right forelimb of the mouse for passage, where the passage was continuously conducted twice. During this period, the mice were raised normally, and the states and tumor growth conditions of the mice were observed and recorded every week.
When a tumor volume in a tumor-bearing mouse to be passaged was about 1,200 mm 3, a tumor was ground and transplanted by a same method for molding. After the tumor inoculation was completed, a body weight of a mouse was measured, and mice were randomly selected and divided into 6 groups with 7 mice per group. After tumor colonization, the administration was started, which was recorded as Day 1 (D1). […]
After the experiment was completed, tumor tissues of animals that died unexpectedly and surviving animals that were euthanized each were peeled off and weighed, and a tumor weight difference of each group was calculated to further calculate a tumor-suppressing rate (IRTW) according to the following formula: […]
It was required in this scheme that measured and observed data results were manually recorded in appropriate forms or directly acquired by a computer. […]

[2] = General clinical observation and body weight of tumor-bearing mice during administration; conditions: mouse, in vivo
Description: According to body weights, animals were randomly divided into 6 groups, with 7 animals per group.
Observed animals: All animals
Observation frequency and time: The animals were observed once before each time of administration during the experiment, and administration and observation results were recorded.
Observation content: including, but not limited to, tumor growth, animal mental states, eating and drinking conditions, or the like.
Detected animals: All animals
Detection time: A body weight of an animal was measured and recorded when grouping (namely, before the first administration) (D1), before each subsequent administration, and before euthanasia.
A body weight and relevant information of an animal were measured and recorded if the animal died unexpectedly.

[3] = 5-Fluorouracil 18 mg/kg, twice a week

For `O=c1[nH]cc(F)c(=O)[nH]1` [5-Fluorouracil], the “Tumor-suppressing rate (%)” value [1, 3] was 52.7%, the Tumor weight [1, 3] was 1.3305 ± 0.6525 and the “Body weight of mice during administration” value [2] was “reduced at a late stage of administration”.
For `Cn1nnc2c(C(N)=O)ncn2c1=O` [TMZ, temozolomide], the “Tumor-suppressing rate (%)” value ([1]; TMZ 25 mg/kg, once every day) was 99.5% and the Tumor weight ([1]; TMZ 25 mg/kg, once every day) was 0.0134 ± 0.0091.
